Test results as given in patent US20250281627A1, “CANCER-TARGETING PEPTIDE, PRODRUG NANOPARTICLES COMPRISING SAME, AND PHARMACEUTICAL COMPOSITION COMPRISING SAME FOR CANCER PREVENTION OR TREATMENT” (priority 2022, published 2025).
Counter-ions that a name gives are not always drawn. Like-named read-outs stand apart in the source and are kept apart here. Residues, ends and D or L forms follow the SMILES beside them. No end group written: not given here. *: point of attachment. Doxorubicin(3'-N) = COc1cccc2c1C(=O)c1c(O)c3c(c(O)c1C2=O)C[C@@](O)(C(=O)CO)C[C@@H]3O[C@H]1C[C@H](N*)[C@H](O)[C@H](C)O1; acyl = not defined here; DOX = doxorubicin

What was measured:
[1] = system: HT29 cells; assay: cells; assay type: cell-based, human; settings: 48 hours; for IC50: CCK-8
Experimental: (§1) In addition, cytotoxicity was investigated using CCK-8 (cell counting kit-8). Specifically, 1×10^4 HT29 cells and 0.5×10^4 H9C2 cells were seeded onto a 96-well plate, respectively, and stabilized by culturing for 24 hours. A single administration group, drug administration groups and a control group were obtained by administering the anticancer agent (DOX) alone (0.01 to 100 μM) or together with the prodrug nanoparticles of Example 4 and Comparative Example 3 (0.01 to 100 μM), respectively, to each well and incubating at 37° C. for 48 hours. After the incubation was completed, a culture medium containing a 10% CCK-8 solution was added. After conducting reaction for 20 minutes, analysis was made with a microplate reader at a wavelength of 450 nm. After plotting cell survivability depending on concentration, IC50 (half-maximal inhibitory concentration) values were obtained for the single administration group, drug administration groups and control group using the GraphPad Prism 8 software (GraphPad Software, San Diego, CA, USA).

[2] = system: H9C2 cells; assay: Cytotoxicity CCK-8; assay type: cell-based, rat; settings: for IC50: 48 hours, CCK-8, normal cells (cardiomyocytes)
Experimental: as §1

[3] = system: HT29 tumor-bearing BALB/c nu/nu mice; assay: Distribution of prodrug nanoparticles in vivo (fluorescence imaging, ex vivo organs, tissue sections)
Experimental: After 3, 6 and 9 hours of the drug injection, the test groups were imaged using an IVIS Lumina Series III system. After euthanasia, liver, lung, spleen, kidney, heart and tumor tissues were recovered.
The obtained tissues were sliced into 10 μm-thick sections, which were mounted individually on a slide glass, and washed tice with DPBS. Then, after staining with […] for 20 minutes, fluorescence signals were observed by CLSM.

[4] = system: HT29 tumor-bearing BALB/c nu/nu mice; assay: Anticancer effect in animal model of cancer
Experimental: (§3) 1×10^7 HT29 cells were subcutaneously injected into the left flank of the 5-week-old male BALB/c nu/nu mice. An animal model of cancer was prepared by breeding the mice until the tumor size grew to about 60 to 80 mm^3.
(§4) Test groups 6 to 8 were prepared by injecting an anticancer agent (DOX) (3 mg/kg) or the prodrug nanoparticles of Example 4 (4 or 10 mg/kg based on DOX concentration) to the animal model of cancer via the tail vein once in 3 days at the same time (n=5 for each test group). The overall treatment period was 26 days, and the number of drug administration was 8 times.
(§5) After the treatment period, tumor volume, body weight and survival rate of each test group were measured every 2 days. After euthanasia, liver, lung, spleen, kidney, heart and cancer tissues were recovered and subjected to histological and TUNEL assay.
(§6) The tumor volume was calculated from the longest diameter×(the shortest diameter)^2×0.53 of the cancer tissue, and a tumor volume larger than 1,000 mm^3 was judged as death.
(§7) For histological analysis, each of the recovered liver, lung, spleen, kidney, heart and cancer tissues was fixed with 4% paraformaldehyde for 15 minutes, embedded in wax, and then sliced to 10 μm-thick sections. Then, after staining with H&E, the morphological damage to the tissues was analyzed by imaging with an optical microscope.
(§8) The cancer tissue was stained by TUNEL (terminal deoxynucleotidyl transferase dUTP nick end labeling) analysis for visualization of the apoptotic region.

[5] = system: HT29 tumor-bearing BALB/c nu/nu mice; settings: mouse, in vivo, iv
Experimental: as §3, §4, §5, §6, §7, §8

[6] = system: H9C2 cells; assay: Cell-specific activity, DOX fluorescence distribution (CLSM); assay type: cell-based, rat; settings: 5 μM, 48 hours
Experimental: (§2) Then, experiment was performed as follows to analyze specific activity for cells. First, 2×10^5 HT29 cells and 2×10^5 H9C2 cells were seeded onto a glass-bottomed confocal dish, respectively. Cathepsin B-inhibited cells (HT29-Inh) were prepared by pretreating HT29 cells with Z-Phe-Ala-FMK (20 μM) for 24 hours. After stabilizing the cells by culturing for 24 hours, and administering the anticancer agent (DOX) alone (5 μM) or together with the prodrug nanoparticles of Example 4 and Comparative Example 3 (5 μM), respectively, a single administration group, drug administration groups and a control group were obtained by incubating at 37° C. for 48 hours. […] Each group was imaged by CLSM to obtain a fluorescence image, and fluorescence intensity was quantified from the fluorescence image to investigate the distribution of the prodrug nanoparticles using the Image-Pro software (Media Cybernetics, Rockville, MD, USA).

[7] = system: tumor-free BALB/c mice; assay: Toxicity in vivo, single administration; settings: single i.v. administration
Experimental: Test groups 9 to 12 were prepared by injecting an anticancer agent (DOX) (3 or 4 mg/kg) or the prodrug nanoparticles of Example 4 (4 or 10 mg/kg based on DOX concentration) once to tumor-free BALB/c mice (5-week-old) via the tail vein (n=5 for each test group).
Tumor volume, body weight and survival rate were measured every day after injection of the drug to the test groups. 8 days later, the mice were euthanized and liver, lung, spleen, kidney, heart and cancer tissues were recovered. Each of the recovered liver, lung, spleen, kidney, heart and cancer tissues was fixed with 4% paraformaldehyde for 15 minutes, embedded in wax, and then sliced to 10 μm-thick sections. Then, after staining with H&E, the morphological damage to the tissues was analyzed by imaging with an optical microscope.
(§9) For evaluation of hematotoxicity, 1 mL of blood was taken from each test group, and blood plasma was separated by centrifuging at 4,500 rpm for 20 minutes. Blood analysis was performed according to the instructions of KNOTUS Co., Ltd. (Incheon, Korea).

[8] = system: Cathepsin B-inhibited cells (HT29-Inh); assay: Cell-specific activity, DOX fluorescence distribution (CLSM); assay type: cell-based, human; settings: HT29-Inh cells (Z-Phe-Ala-FMK 20 μM pretreated), 5 μM, 48 hours
Experimental: as §2

[9] = system: tumor-free BALB/c mice; settings: multiple administration; for body weight change: once in 3 days, 8 times
Experimental: 8 days later, the mice were euthanized and liver, lung, spleen, kidney, heart and cancer tissues were recovered. Each of the recovered liver, lung, spleen, kidney, heart and cancer tissues was fixed with 4% paraformaldehyde for 15 minutes, embedded in wax, and then sliced to 10 μm-thick sections. Then, after staining with H&E, the morphological damage to the tissues was analyzed by imaging with an optical microscope.
as §9

[10] = Cytotoxicity CCK-8; assay type: cell-based, rat; settings: rat, H9C2 cells; at 1 to 100 μM, 48 hours; read-out: survival rate of normal cells
Experimental: as §1

[11] = system: T1, FRRL-DOX conjugate / prodrug nanoparticles of Example 4 (N-acylated Phe-Arg-Arg-Leu conjugated with doxorubicin)
T1 sequence: FRRG

[12] = system: HT29 cells; assay: Degradation after cellular uptake (MALDI-TOF of cell filtrate); assay type: cell-based, human; settings: 100 μM, 48 hours
Experimental: In order to further investigate whether the prodrug nanoparticles are degraded after cellular uptake, 1×10^6 HT29 cells were seeded onto a 100-mm cell culture dish and stabilized by culturing for 24 hours. After administering the prodrug nanoparticles of Examples 4 to 6 and Comparative Example 3 (100 μM) to the cells, drug administration groups 1, 2 and 3 (FRRL-DOX, FRRLG-DOX, FLRRG-DOX) and a control group (FRRG-DOX) were obtained by incubating at 37° C. for 48 hours. Each group was washed with PBS and dispersed in distilled water (H2O). The dispersion was filtered through a 0.45-μm syringe filter, and the recovered filtrate was subjected to mass analysis by MALDI-TOF.

[13] = system: HT29 colon cancer cells; assay: Cellular uptake and intranuclear localization (CLSM); assay type: cell-based, human; settings: 5 μM
Experimental: The cellular uptake and intranuclear localization of the prodrug nanoparticles (5 μM) were analyzed using HT29 colon cancer cells. In order to investigate the intracellular behavior and intracellular interaction of the prodrug nanoparticles, 2×10^5 HT29 cells were seeded onto a glass-bottomed confocal dish. After stabilizing the cells by culturing for 24 hours, they were treated with the prodrug nanoparticles of Examples 4 to 6 and Comparative Example 3 (5 μM), and drug administration groups 1, 2 and 3 (FRRL-DOX, FRRLG-DOX, FLRRG-DOX) and a control group (FRRG-DOX) were obtained by incubating at 37° C. for 0, 24 and 48 hours. […] Each group was imaged by CLSM to obtain a fluorescence image, and fluorescence intensity was quantified from the fluorescence image to investigate the distribution of the prodrug nanoparticles using the Image-Pro software (Media Cybernetics, Rockville, MD, USA).

[14] = target: lysosome enzymes other than cathepsin B; assay: cell-based or functional assay
[15] = i.v. once in 3 days, test group 6
[16] = test group 4, 4 mg/kg based on DOX

For `COc1cccc2c1C(=O)c1c(O)c3c(c(O)c1C2=O)C[C@@](O)(C(=O)CO)C[C@@H]3O[C@H]1C[C@H](NC(=O)CNC(=O)[C@H](CCCNC(=N)N)NC(=O)[C@H](CCCNC(=N)N)NC(=O)[C@H](Cc2ccccc2)NC(C)=O)[C@H](O)[C@H](C)O1` [Comparative Example 3] (Ac-FRRG-{Doxorubicin(3'-N)}), the IC50 [1] was 14.1 µM, the IC50 [2] was 158 µM and the “accumulation in liver tissues relative to cancer tissues” value ([3]; test group 2, 4 mg/kg based on DOX, i.v.) was 2.4 times. For the same molecule, the “accumulation in liver tissues relative to cancer tissues” value ([3]; test group 3, 10 mg/kg based on DOX, i.v.) was 6.7 times.

With `COc1cccc2c1C(=O)c1c(O)c3c(c(O)c1C2=O)C[C@@](O)(C(=O)CO)C[C@@H]3O[C@H]1C[C@H](N)[C@H](O)[C@H](C)O1` [DOX, Doxorubicin hydrochloride] the IC50 ([1]; Homo sapiens, HT-29) was 0.12 µM, the “histopathological analysis of cancer tissue” value ([4]; H&E, after treatment) was “relatively weak damage of the cancer tissue” and the “TUNEL assay of cancer tissue (green fluorescence)” value ([4]; after treatment) was “weak green fluorescence”. For the same molecule, the “all the mice died within” value [4, 15] was no more than 20 days, the death observed within [4, 15] was no more than 5 days and the systemic toxicity [5] was “severe systemic toxicity”. The “survival rate in tumor cells versus normal cells” value ([2]; HT29 versus H9C2) was “no difference in the survival rate”, the IC50 ([2]; Rattus norvegicus, H9c2) was 0.12 µM and the “location of fluorescence of anticancer agent (DOX)” value [6] was “penetrated into the cell nucleus”. The “red fluorescence (DOX) in cancer tissue sections” value ([3]; 4 mg/kg i.v., confocal, DAPI) was “hardly observed”, the “fluorescence intensity in kidney tissues relative to cancer tissues” value ([3]; 4 mg/kg i.v., test group 1) was 8.8 times and the “histochemical analysis of organ tissues (H&E)” value (from here on “histochemical analysis”) [7] was “damaged severely”. For the same molecule, the body weight decrease ([7]; 3 and 4 mg/kg) was no less than 9%, the “location of fluorescence of anticancer agent (DOX)” value [8] was “penetrated into the cell nucleus” and the hematotoxicity [9] was “significant hematotoxicity”. The “histochemical analysis” value [9] was “normal tissues were destroyed and damaged”, the “all the mice died within” value ([9]; DOX 3 and 4 mg/kg) was no more than 20 days and the “levels of hemoglobin and hematocrit” value ([9]; DOX 3 and 4 mg/kg) was “outside normal ranges”. The body weight change [9] was “rapid body weight decrease”.

In the case of `COc1cccc2c1C(=O)c1c(O)c3c(c(O)c1C2=O)C[C@@](O)(C(=O)CO)C[C@@H]3O[C@H]1C[C@H](NC(=O)[C@H](CC(C)C)NC(=O)[C@H](CCCNC(=N)N)NC(=O)[C@H](CCCNC(=N)N)NC(=O)[C@H](Cc2ccccc2)NC(C)=O)[C@H](O)[C@H](C)O1` [Example 4] (Ac-FRRL-{Doxorubicin(3'-N)}), the IC50 [1] is reported as 6.13 µM, the “survival rate of cancer cells” value ([1]; at 1 to 100 μM) is reported as 0% and the systemic toxicity ([4]; repeated i.v. administration in tumor-bearing mice) is reported as “no severe systemic toxicity”. The viability at 48 h [10] was 80%, the IC50 [2] was 182 µM and the “accumulation efficiency for cancer tissues (in vivo fluorescence imaging)” value ([3]; 4 mg/kg based on DOX, i.v., 9 hours, vs DOX alone or Comparative Example 3) was “significantly high accumulation efficiency for cancer tissues”. The “cancer-targeting ability (fluorescence of isolated cancer tissue), times higher than DOX” value ([3]; 4 mg/kg based on DOX, i.v., test group 4 vs 1) was 2.3 times, the “cancer-targeting ability (fluorescence of isolated cancer tissue), times higher than Comparative Example 3” value ([3]; 4 mg/kg based on DOX, i.v., test group 4 vs 2) was 1.4 times and the “accumulation in cancer tissues relative to kidney tissues” value ([3]; 4 and 10 mg/kg based on DOX, i.v., test groups 4 and 5) was no less than 2 times. For the same molecule, the “accumulation efficiency for liver tissues, times lower than Comparative Example 3” value ([3]; first of two printed values (4 and 10 mg/kg groups)) was 2.4 times, the “accumulation efficiency for liver tissues, times lower than Comparative Example 3” value ([3]; second of two printed values (4 and 10 mg/kg groups)) was 4.8 times and the “red fluorescence in cancer tissue sections, times stronger than test group 1” value [3, 16] was 6.7 times. For the same molecule, the “red fluorescence in cancer tissue sections, times stronger than test group 3” value [3, 16] was 2.6 times, the “histochemical analysis” value [7] was “no damaged organ tissue” and the body weight change ([7]; 4 and 10 mg/kg based on DOX) was “no significant change in body weight”. The hematotoxicity [9] was “no hematotoxicity”, the “histochemical analysis” value [9] was “no significant damage of organ tissues” and the “all the mice survived healthily for” value ([9]; 4 and 10 mg/kg based on DOX) was “more than 26 days”. For the same molecule, the body weight change [9] was “no body weight change”.

For “Cathepsin B (purchased from R&D Systems), enzyme in solution”, the “RP-HPLC peaks of conjugate and cleavage product over reaction time” value [11] was “a peak of L-DOX was observed at 14.7 minutes 3 hours after the reaction. The peak of the FRRL-DOX conjugate began to decrease and was not detected at all 24 hours after the reaction”.

For “Example 6: conjugate of N-terminally acylated peptide Phe-Leu-Arg-Arg-Gly (SEQ ID NO: 3) and doxorubicin; self-assembled prodrug nanoparticles (acyl-FLRRG-{DOX}; reading uncertain; also: printed as FLRRG-DOX)”, the “degradation of prodrug nanoparticles in the cancer cells (MALDI-TOF)” value [12] was “slightly low sensitivity to cathepsin B”, the “anticancer agent (DOX) delivered into the nucleus (ratio of accumulation in the nucleus)” value ([13]; 48 h, fluorescence intensity nucleus vs cytoplasm) was 21% and the “location of red fluorescence (DOX) in the cells” value ([13]; confocal images) was “mainly in the region other than the nucleus”.

Work on FRRLG-{DOX} (not fully specified (N-terminus); printed as FRRLG-DOX) yielded a degradation ratio (%) [14] of less than 5%.

FLRRG-{DOX} (not fully specified (N-terminus); printed as FLRRG-DOX) showed a degradation ratio (%) [14] of less than 5%.
